According to publication PMC10610289, “Novel Baicalein-Derived Inhibitors of Plasmodium falciparum” (Pathogens, 2023):

What was measured:
[1] = Microsomal stability assay; type: in vitro ADME, mouse; conditions: 37 °C
Experimental: Dipotassium hydrogen phosphate, Potassium dihydrogen phosphate, and formic acid were obtained from Merck, Rahway, NJ, USA. Methanol–acetonitrile was procured from Biosolve Chimie, Dieuze, France. Mouse liver microsomes, 20 mg/mL, were received from a third-party vendor in India. Imipramine HCl (catalog no. I0971) and Carbamazepine (catalog no. O0363) were procured from TCI, Gurugram, India. ß-NADPH (product code-99197) was procured from Sisco Research Laboratories, Mumbai, India.
The in vitro metabolic stability was determined in mouse liver microsomes. To prepare a mouse liver microsomes (MLM) homogenate, 100 µL of microsomes was resuspended in 100 mM phosphate buffer (0.607 g K2HPO4 and 0.212 g KH2PO4 dissolved in 50 mL of de-ionized water), achieving a working concentration of 0.625 mg/mL. Positive control (Imipramine) and test compounds (FNDR-10132, 10136, 10139, and 10999) were spiked individually into the MLM homogenate at a final concentration of 1 µm. To pre-incubate, they were placed in a water bath at 37 °C for 5 min. At least 30 µL was collected in triplicates (0 min samples), and the reaction was quenched using 90 µL of acetonitrile, which contained 500 ng/mL of Carbamazepine as an internal standard. Nicotinamide Adenine Dinucleotide Phosphate (NADPH) in phosphate buffer was added to the remaining MLM at a 1 mM final concentration and further incubated at 37 °C. At the indicated time intervals, 30 µL aliquots were sampled in triplicates, and the reaction was quenched with acetonitrile containing Carbamazepine as the internal standard. The samples were centrifugated for 10 min at 13,000 rpm, and the supernatant was separated for further analysis.
The analytical method for microsomal stability and protein binding assay is as follows: Chromatographic elution was achieved following isocratic flow on an X-Terra MS C18 50 × 4.6 mm, 2.5 µm, Waters, USA, maintained at 40 °C. The mobile phase contained aqueous 0.1% formic acid in water in solvent A and acetonitrile acidified with 0.1% formic acid in solvent B delivered at 0.300 mL/min. The flow was 15% from solvent A and 85% from solvent B for 4.5 min. A total of 7 μL of the sample was injected for the assay. […] Detection was performed through multiple reaction monitoring (MRM). The ion transitions are as follows: Imipramine, FNDR-10132, FNDR-10136, FNDR-10139, FNDR-10999, and IS at m/z 281.1→86.0, 355.2→115.1, 354.0→298.0, 350.0→186.1, 349→305.2, and m/z 237.0→194.0, respectively. An optimized cone voltage and collision energy were used to ionize the compounds. The MS parameters follow as follows: cone gas flow 50 (L/h); ion source temperature 150 °C; desolvation gas flow 900 (L/h); desolvation temperature 400 °C; and collision gas flow 0.10 (mL/min).

[2] = system: P. falciparum female gametocytes; assay: P. falciparum dual gamete formation assay (PfDGFA), female; type: cell-based; conditions: Plasmodium falciparum, read-out: DGF Assay—Inhibition, female
Experimental: The FNDR-10132 was evaluated in a male and female gametocyte functional viability assay by following the procedure described in Ruecker et al..

[3] = system: resistant strains of P. falciparum; assay: Cross-resistance panel, all mutants/strains tested; type: cell-based; conditions: Plasmodium falciparum, read-out: antimalarial activity range against all mutants/strains tested
Experimental: Parasite lines used in the study were P. falciparum 3D7 (Pf3D7 Chloroquine-sensitive) and Plasmodium falciparum K1 (PfK1 Chloroquine-resistant) sourced from the Malaria Research and Reference Reagent Resource Center (MR4), ATCC, Manassas, VA, USA. FNDR-10132 was tested against a cross-resistance panel at Swiss TPH, Allschwil, Switzerland.

[4] = system: Plasmodium yoelii N67 (Chloroquine-resistant); assay: In vivo antimalarial assay in Swiss mice; conditions: 100 mg/kg ×4 days, oral
Experimental: All animal experiments were performed following the institutional animal ethics committee (IAEC). Laboratory-bred Swiss albino mice (both male and female) weighing 20–22 g were obtained from breeding colonies at the National Laboratory Animal Centre at the CSIR-CDRI, Lucknow, with due permission from the animal ethics committee (IAEC/2018/16/Renew-1/Dated-05/04/2019). The rodent malaria parasite Plasmodium yoelii N67 (chloroquine-resistant) was used for the study. This parasite was maintained by serial passage in healthy Swiss mice of either sex.
Swiss mice were inoculated with a standard inoculum of 1 × 106 P. yoelii N67 parasitized erythrocytes intraperitoneally. The 22-gauge hypodermic needle was used to infect the mice and was injected with a 0.5 mL (infected RBCs) volume. Treatment was initiated from day 0 to day 3 (total 4 days) once daily, and different routes of administration, viz., oral, intravenous, intraperitoneally, and subcutaneous, were used. For in vivo evaluation, compounds were dissolved in 300 µL of DMSO and were made up with MilliQ. The efficacy of in vitro active compounds was evaluated for in vivo activity at different doses, and the desired daily dose was administered in a 0.2 mL volume. A drop of blood from the mice’s tails was collected regularly throughout the experiment for parasitemia estimation. The group’s mean value was calculated using the percentage suppression of parasitemia compared with the untreated control group.

Structure (SMILES): CCCCCCc1ccc(-c2cc(=O)c3c(O)c(O)c(O)cc3o2)cc1 [FNDR-10132]
- stability in mouse liver microsomes (in words) ([1]; 60 min, ß-NADPH): moderate stability
- Microsomal Stability (Mouse) ([1]; at 30 min, 1 µM, NADPH): 99%
- inhibition at 1 µM [2]: 9.5%
- IC50 [3]: 200 to 300 nM
- % Parasitemia ± S.D on Day 4 [4]: 8.5 ± 1.39 (4) %
- % Parasitemia ± S.D on Day 7 [4]: 26.15 ± 8.70 (4) %
- % Parasitemia ± S.D on Day 10 [4]: 24.07 ± 3.69 (3) %
- % Parasitemia ± S.D on Day 14 [4]: 46.5 ± 4.2 (2) %
- % Parasitemia ± S.D on Day 21 [4]: Dead
- Mean Survival Time (MST) Days ± SD [4]: 13.5 ± 2.3 days
- Day 4 % Suppression ([4]; Swiss mice): 44%
